Laboratory results from BindingDB's records for doi:10.1016/S1074-5521(99)80084-2 (Institute of Genetics and Molecular and Cellular Biology …, 1999).

Key:
[1] = target: T1, Retinoic acid receptor alpha [200-419] (Homo sapiens, UniProt P10276); experiment: Competitive Assay; settings: pH 8; 4 °C
T1 construct: 200-419
T1 sequence (P10276 whole entry): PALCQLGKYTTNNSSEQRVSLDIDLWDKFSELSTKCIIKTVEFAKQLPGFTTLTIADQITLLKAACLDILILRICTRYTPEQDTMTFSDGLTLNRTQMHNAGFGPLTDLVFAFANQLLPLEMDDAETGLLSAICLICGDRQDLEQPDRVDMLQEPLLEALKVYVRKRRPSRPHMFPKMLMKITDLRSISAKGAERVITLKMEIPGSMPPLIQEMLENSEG
Description: (§1) Competitive assay were perform with 5nM tritiated all-trans retinoic acid (t-RA; 5nM) with or without 100-fold excess of non-radioactive t-RA (500nM).

[2] = target: T2, Retinoic acid receptor alpha [200-419]/gamma [183-417] (Homo sapiens, UniProt P10276+P13631); experiment: Competitive Assay; settings: pH 8; 4 °C
T2 construct: 200-419; 183-417
T2 sequence (P13631 whole entry): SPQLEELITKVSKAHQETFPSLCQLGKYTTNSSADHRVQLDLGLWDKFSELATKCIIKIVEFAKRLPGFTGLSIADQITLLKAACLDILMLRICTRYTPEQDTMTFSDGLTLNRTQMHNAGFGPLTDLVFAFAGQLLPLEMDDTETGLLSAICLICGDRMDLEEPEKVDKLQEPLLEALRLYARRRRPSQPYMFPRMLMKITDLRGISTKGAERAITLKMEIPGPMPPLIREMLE
T2 sequence (P10276 whole entry): T1 sequence (P10276 whole entry)
Description: as §1

SMILES | Ki [1] | Ki [2]
CC1(C)CC=C(c2cnc3ccccc3c2)c2cc(C(=O)Nc3ccc(C(=O)O)cc3)ccc21 [BMS614] | 2.5 nM | 1 nM
CC1(C)C(=O)C(C)(C)c2cc(C(=O)Nc3ccc(C(=O)O)cc3)ccc21 [BMS753] | 2 nM | 1 nM
